Values quoted from earlier work, collected in patent US20160201132A1, “GENE EXPRESSION BIOMARKERS OF LAQUINIMOD RESPONSIVENESS” (Teva Pharmaceutical Industries Ltd., priority 2013, published 2016).

Tested on: RRMS patients
Settings: 106 RRMS patients vs 102 placebo treated RRMS patients; cited from earlier work

SMILES: CCN(C(=O)c1c(O)c2c(Cl)cccc2n(C)c1=O)c1ccccc1 [LAQ, 5-chloro-N-ethyl-4-hydroxy-1-methyl-2-oxo-N-phenyl-1,2-dihydroquinoline-3-carboxamide]
- reduction in the cumulative number of gadolinium enhanced lesions in brain MRI: about 40%
